Results published in ChEMBL document CHEMBL4043274, “4-Hydroxy-2-pyridones: Discovery and evaluation of a novel class of antibacterial agents targeting DNA synthesis” (Bioorg Med Chem Lett, 2017).
Values after ≈ are worked out from the molar mass of the structure shown.

Key:
Type in all cases: functional
Escherichia coli [1] = assay: Antibacterial activity against wild-type Escherichia coli ATCC 25922 by CLSI M100-S17 protocol based method
Escherichia coli [2] = assay: Antibacterial activity against Escherichia coli BAS849 by CLSI M100-S17 protocol based method
[3] = Selectivity ratio of MIC for wild-type Escherichia coli ATCC 25922 to MIC for Escherichia coli BAS849
Escherichia coli [4] = assay: Ratio of MIC in presence to absence of HSA for wild-type Escherichia coli ATCC 25922
Escherichia coli [5] = assay: Antibacterial activity against quinolone resistant Escherichia coli SKM18 by CLSI M100-S17 protocol based method
Escherichia coli [6] = assay: Antibacterial activity against wild-type Escherichia coli ATCC 25922 in presence of human serum albumin by CLSI M100-S17 protocol based method
Acinetobacter baumannii = assay: Antibacterial activity against Acinetobacter baumannii ATCC BAA-747 by CLSI M100-S17 protocol based method
Klebsiella pneumoniae = assay: Antibacterial activity against Klebsiella pneumoniae ATCC 35657 by CLSI M100-S17 protocol based method
Staphylococcus aureus = assay: Antibacterial activity against multidrug resistant Staphylococcus aureus by broth microdilution assay

Compound	MIC (Escherichia coli [1])	MIC (Escherichia coli [2])	MIC (Escherichia coli [5])	other results
CCc1c(-c2ccc(N(C)C)cc2)[nH]c(=O)c(C(=O)O)c1OC	> 12.5 µg/mL	12.5 µg/mL (≈ 39.5 µM)	–	–
CCc1c(-c2ccc(N3CCCCC3)cc2)[nH]c(=O)c(C(=O)O)c1O	> 62.5 µg/mL	0.39 µg/mL (≈ 1.14 µM)	–	Selectivity ratio [3]: > 50; Ratio (Escherichia coli [4]): >30
CN(C)c1ccc(-c2[nH]c(=O)c(C(=O)O)c(O)c2C2CCCCC2)cc1	> 62.5 µg/mL	6.25 µg/mL (≈ 17.5 µM)	–	–
CCc1c(-c2ccc(N(C)C)cc2C)[nH]c(=O)c(C(=O)O)c1O	> 12.5 µg/mL	6.3 µg/mL (≈ 19.9 µM)	–	–
CCc1c(-c2ccc(N3CCC(C)(CN)C3)cc2)[nH]c(=O)c(C(=O)O)c1O (configuration not stated)	1.6 µg/mL (≈ 4.31 µM)	0.39 µg/mL (≈ 1.05 µM)	6.3 µg/mL (≈ 17 µM)	Ratio (Escherichia coli [4]): 4 - 8
Cc1c(-c2ccc(N(C)C)cc2)[nH]c(=O)c(C(=O)O)c1O	31.3 µg/mL (≈ 109 µM)	0.39 µg/mL (≈ 1.35 µM)	3.1 µg/mL (≈ 10.8 µM)	–
CCc1c(-c2ccc(Cl)cc2)[nH]c(=O)c(C(=O)O)c1O	> 12.5 µg/mL	1.6 µg/mL (≈ 5.45 µM)	–	–
CCc1cc(C(=O)O)c(=O)[nH]c1-c1ccc(N(C)C)cc1	0.78 µg/mL (≈ 2.72 µM)	0.03 µg/mL (≈ 0.105 µM)	> 62.5 µg/mL	–
CCc1c(-c2ccc(OC)cc2)[nH]c(=O)c(C(=O)O)c1O	7.8 µg/mL (≈ 27 µM)	≤ 0.2 µg/mL	–	–
CCOC(=O)c1c(O)c(CC)c(-c2ccc(N(C)C)cc2)[nH]c1=O	> 12.5 µg/mL	> 12.5 µg/mL	–	–
CCc1c(-c2ccc(N(C)C)c(C)c2)[nH]c(=O)c(C(=O)O)c1O	> 12.5 µg/mL	1.6 µg/mL (≈ 5.06 µM)	–	–
CN(C)c1ccc(-c2[nH]c(=O)c(C(=O)O)c(O)c2C2CC2)cc1	> 62.5 µg/mL	1.56 µg/mL (≈ 4.96 µM)	–	–
CCc1c(-c2ccc(N3CCC(C(C)(C)N)C3)cc2)[nH]c(=O)c(C(=O)O)c1O (configuration not stated)	3.1 µg/mL (≈ 8.04 µM)	0.78 µg/mL (≈ 2.02 µM)	0.78 µg/mL (≈ 2.02 µM)	MIC (Escherichia coli [6]): 12.5 µg/mL; MIC (Acinetobacter baumannii): > 12.5 µg/mL; MIC (Klebsiella pneumoniae): 6.3 µg/mL (≈ 16.3 µM); Ratio (Escherichia coli [4]): 4 - 8
CCn1cc(C(=O)O)c(=O)cc1-c1ccc(N(C)C)cc1	6.3 µg/mL (≈ 22 µM)	0.39 µg/mL (≈ 1.36 µM)	> 62.5 µg/mL	–
CCc1c(-c2ccc(N3CCC(C4(N(C)C)CC4)C3)cc2)[nH]c(=O)c(C(=O)O)c1O (configuration not stated)	6.3 µg/mL (≈ 15.3 µM)	0.04 µg/mL (≈ 0.0972 µM)	> 12.5 µg/mL	MIC (Acinetobacter baumannii): > 25 µg/mL; MIC (Klebsiella pneumoniae): 12.5 µg/mL (≈ 30.4 µM); Ratio (Escherichia coli [4]): 4 - 8
CCc1c(-c2ccc(N3CCC(C4(N)CCC4)C3)cc2)[nH]c(=O)c(C(=O)O)c1O (configuration not stated)	1.6 µg/mL (≈ 4.03 µM)	0.39 µg/mL (≈ 0.981 µM)	0.19 µg/mL (≈ 0.478 µM)	MIC (Escherichia coli [6]): 12.5 µg/mL; MIC (Acinetobacter baumannii): 3.1 µg/mL (≈ 7.8 µM); MIC (Klebsiella pneumoniae): 1.6 µg/mL (≈ 4.03 µM); Ratio (Escherichia coli [4]): 4 - 8
CCc1c(-c2ccc(N(CC)CC)cc2)[nH]c(=O)c(C(=O)O)c1O	> 62.5 µg/mL	0.24 µg/mL (≈ 0.726 µM)	–	Selectivity ratio [3]: > 50

Compound	MIC (Escherichia coli [1])	MIC (Escherichia coli [2])	MIC (Escherichia coli [5])	other results
CCc1c(-c2ccc(N3CC=CC3)cc2)[nH]c(=O)c(C(=O)O)c1O	0.78 µg/mL (≈ 2.39 µM)	0.01 µg/mL (≈ 0.0306 µM)	> 62.5 µg/mL	MIC (Escherichia coli [6]): 32.2 µg/mL; Selectivity ratio [3]: > 50
CCc1c(-c2ccc(N3CCC(CNC)C3)cc2)[nH]c(=O)c(C(=O)O)c1O (configuration not stated)	1.6 µg/mL (≈ 4.31 µM)	0.39 µg/mL (≈ 1.05 µM)	7.8 µg/mL (≈ 21 µM)	MIC (Escherichia coli [6]): 6.3 µg/mL; MIC (Acinetobacter baumannii): 12.5 µg/mL (≈ 33.7 µM); MIC (Klebsiella pneumoniae): 6.3 µg/mL (≈ 17 µM); Ratio (Escherichia coli [4]): 4 - 8
CCc1c(-c2ccc(N(C)C)cc2OC)[nH]c(=O)c(C(=O)O)c1O	> 12.5 µg/mL	6.3 µg/mL (≈ 19 µM)	–	–
CC(C)c1c(-c2ccc(N(C)C)cc2)[nH]c(=O)c(C(=O)O)c1O	12.5 µg/mL (≈ 39.5 µM)	0.12 µg/mL (≈ 0.379 µM)	> 62.5 µg/mL	–
CCc1c(-c2ccc(N3CC4CC4(N)C3)cc2)[nH]c(=O)c(C(=O)O)c1O (configuration not stated)	1.6 µg/mL (≈ 4.5 µM)	0.04 µg/mL (≈ 0.113 µM)	6.3 µg/mL (≈ 17.7 µM)	MIC (Escherichia coli [6]): > 12.5 µg/mL; MIC (Acinetobacter baumannii): 6.3 µg/mL (≈ 17.7 µM); MIC (Klebsiella pneumoniae): 3.1 µg/mL (≈ 8.72 µM)
CCc1c(-c2ccc(N(C)C)c(OC)c2)[nH]c(=O)c(C(=O)O)c1O	> 12.5 µg/mL	6.3 µg/mL (≈ 19 µM)	–	–
CCc1c(-c2ccc(N3CCNCC3)cc2)[nH]c(=O)c(C(=O)O)c1O	6.3 µg/mL (≈ 18.3 µM)	3.1 µg/mL (≈ 9.03 µM)	62.5 µg/mL (≈ 182 µM)	MIC (Escherichia coli [6]): 15.6 µg/mL; Ratio (Escherichia coli [4]): <3
CCc1cc(C(=O)O)c(=O)n(C)c1-c1ccc(N(C)C)cc1	> 62.5 µg/mL	1.6 µg/mL (≈ 5.33 µM)	> 62.5 µg/mL	–
CCc1c(-c2ccc(N3C[C@@H]4[C@H](C3)[C@H]4N(C)C)cc2)[nH]c(=O)c(C(=O)O)c1O	6.3 µg/mL (≈ 16.4 µM)	0.25 µg/mL (≈ 0.652 µM)	12.5 µg/mL (≈ 32.6 µM)	MIC (Escherichia coli [6]): > 12.5 µg/mL; MIC (Acinetobacter baumannii): > 12.5 µg/mL; Ratio (Escherichia coli [4]): 4 - 8
CCc1c(-c2ccc(N(C)C)cc2F)[nH]c(=O)c(C(=O)O)c1O	> 12.5 µg/mL	≤ 0.2 µg/mL	–	–
CCc1c(-c2ccc(N3CC(N)C4(CC4)C3)cc2)[nH]c(=O)c(C(=O)O)c1O (configuration not stated)	3.1 µg/mL (≈ 8.39 µM)	0.78 µg/mL (≈ 2.11 µM)	6.3 µg/mL (≈ 17.1 µM)	–
CCc1c(-c2ccc(C)cc2)[nH]c(=O)c(C(=O)O)c1O	> 12.5 µg/mL	0.78 µg/mL (≈ 2.85 µM)	–	–
CCc1c(-c2ccc(N3CCC(C4(N)CC4)C3)cc2)[nH]c(=O)c(C(=O)O)c1O (configuration not stated)	1.6 µg/mL (≈ 4.17 µM)	0.39 µg/mL (≈ 1.02 µM)	–	MIC (Escherichia coli [6]): 12.5 µg/mL; MIC (Acinetobacter baumannii): 3.1 µg/mL (≈ 8.08 µM); MIC (Klebsiella pneumoniae): 3.1 µg/mL (≈ 8.08 µM); Ratio (Escherichia coli [4]): 4 - 8
O=C(O)c1cn(C2CC2)c2cc(N3CCNCC3)c(F)cc2c1=O [CIPROFLOXACIN]	–	–	–	MIC (Staphylococcus aureus): 0.125 to 64 µg/mL (≈ 0.377 to 193 µM); MIC50 (Staphylococcus aureus): 64 µg/mL (≈ 193 µM); MIC90 (Staphylococcus aureus): > 64 µg/mL
CN(C)c1ccc(-c2[nH]c(=O)c(C(=O)O)c(O)c2Cc2ccccc2)cc1	> 12.5 µg/mL	> 12.5 µg/mL	–	–
CCc1c(-c2ccc(N3C[C@@H]4[C@H](C3)[C@H]4NC)cc2)[nH]c(=O)c(C(=O)O)c1O	0.39 µg/mL (≈ 1.06 µM)	0.049 µg/mL (≈ 0.133 µM)	3.1 µg/mL (≈ 8.39 µM)	MIC (Escherichia coli [6]): 3.1 µg/mL; MIC (Acinetobacter baumannii): 1.6 µg/mL (≈ 4.33 µM); MIC (Klebsiella pneumoniae): 0.39 µg/mL (≈ 1.06 µM); Ratio (Escherichia coli [4]): 4 - 8
CCc1c(-c2ccc(N(C)C)c(F)c2)[nH]c(=O)c(C(=O)O)c1O	7.8 µg/mL (≈ 24.4 µM)	0.39 µg/mL (≈ 1.22 µM)	–	–
